{"source": "patent US8012994B1", "about": "(priority 2006, dated 2011)", "type_in_all_cases": "in vivo, human", "key": {"[1]": {"tested_on": "blind mute and deaf children", "assay": "galanthamine hydrobromide injections in blind mute and deaf children", "settings": "one of 3 patients, 7-9 years old; 0.1 ml of 0.5% solution per year of life, 15-20 injections", "protocol": "25 years ago, applicant conducted a study of a small group of blind mute and deaf children (3 patients) at the age of 7-9 years old. There was an attempt to restore their visual function using galanthamine hydrobromide solution at the dosage of 0.1 ml of 0.5% of galanthamine hydrobromide for each year of life. The course of treatment included 15-20 injections. […] This finding gave an impetus to conduct additional research into the restoration of auditory function using acetylholinesterase inhibitors in conjunction with laser stimulation."}, "[2]": {"tested_on": "sensorineural hearing loss caused by hyperbilirubinemia", "assay": "Treatment for sensorineural hearing loss caused by hyperbilirubinemia", "protocol": "Research was conducted on four patients (age 2 to 5 years) who had hyperbilirubinemia soon after birth. The hearing impairment was diagnosed when the children were examined and treated for hyperkinetic cerebral palsy. The children were not able to walk.\nAfter the treatment, their hearing improved by 10-15 dB."}, "[3]": {"tested_on": "sensorineural hearing loss caused by birth injury", "assay": "Treatment for sensorineural hearing loss caused by birth injury", "protocol": "Research was conducted with 4 patients whose hearing loss was caused by birth injury. Two patients were twin boys […] and two patients […].\nThe twins had sensorineural hearing loss in both ears. […] The course was repeated in 1.5 months, and the third course was conducted in 3 months.\nTreatment was then conducted according to the following pattern.\nThe courses were repeated every three months for three years. They received 8 and 10 courses respectively."}, "[4]": {"tested_on": "hearing loss caused by toxoplasmosis", "assay": "Treatment for neuropathy of CN VIII: hearing loss caused by toxoplasmosis", "settings": "patient", "protocol": "This research involved observation of neuropathy in the vestibulocochlear nerve of 17 patients.\nIn two patients, the hearing loss was caused by toxoplasmosis. In one patient, inborn toxoplasmosis was diagnosed. The other patient developed toxoplasmosis from an infected cat.\nThe second course was conducted in three months. After four courses of treatment, their hearing improved by 25 dB.\nAfter 5 courses of treatment, their hearing improved by 30 dB."}, "[5]": {"tested_on": "sensorineural hearing loss caused by Usher syndrome", "assay": "Treatment for sensorineural hearing loss caused by Usher syndrome", "protocol": "A group of 4 children of 5-6 years old with Usher's syndrome were studied. They manifested profound hearing impairment of 65-75 dB alongside progressive loss of vision due to retinitis pigmentosa. These children had been previously refused treatment on the account of their disease being genetic.\nIn 1.5 months there was an improvement in hearing by 5 dB. […] The third course was conducted in three months according to the same pattern. After that the hearing improved by 10-15 dB.\nPIRIBEDIL® is a vasodilative drug used for treating vision and hearing disorders. Applicant observed that the hearing was improved by 5-10 dB. The patients were recommended to have a follow up treatment every 6 months according to the same pattern."}, "[6]": {"tested_on": "neurinomas of cerebellopontine angle", "assay": "Treatment for neurinomas of cerebellopontine angle", "text": "Neurinomas of the cerebropontine angle—7 patients (2 patients and 5 people from 35 to 45 years of age).\nIn all 7 patients, the tumor was diagnosed late and was of a considerable size. In spite of the fact that all of them had consulted doctors, they were correctly diagnosed only after the appearance of the symptoms of damage to the facial nerve, ataxy, and complete hearing loss. Some of the patients underwent neurosurgery, including partial removal of the tumor followed by chemo- and radio-therapy. The patients manifested paralysis of the facial nerve, optic atrophy, and tinnitus, dizziness and paresis or hemisyndrom of different degrees.\nAfter the operations, some of the patients had severe complications. […] Disorders of differentiation of words, especially in noisy environments. Some patients manifested convulsions and severe headaches. The encephalogram registered readiness for convulsions. Such patients initially underwent anticonvulsant therapy with CARBAMAZEPINE® 100 mg two times a day.\nThe course of treatment was repeated every 3-6 months. […] The patients started to differentiate shapes of objects, which helped them to orient in the surroundings and to come to the clinic without a guide."}, "meningiomas": {"tested_on": "meningiomas", "assay": "Treatment of patients with meningiomas", "settings": "1.25 mg once a day, three courses", "protocol": "Applicant observed two patients with meningiomas. Their tumors were of a considerable size. These patients had undergone surgery, which was conducted in two stages, and was followed by chemo- and radiation therapy. These patients were practically blind, and had bilateral optic atrophy, their hearing function was impaired by 30-40 dB, they were not able to differentiate words in noisy environments. They also manifested convulsive attacks up to 15 times a day. They went through the anticonvulsant therapy, after which their convulsions occurred only for 2 times a month. […] In a month and a half, the treatment was conducted according to the following pattern. 1.25 mg once a day for 7 days, followed by a 5 day break. […] This course was repeated in 3 months. The third course was conducted in 6 months. […] These improvements satisfied the patients and no further treatment was conducted."}, "minimal hearing loss": {"tested_on": "minimal hearing loss", "assay": "Treatment for minimal hearing loss", "text": "A group of patients consisting of 56 children was selected. 29 children—4 years of age and 27 children—5-6 years of age.\nMinimal hearing disorders were discovered when these children were investigated for speech development delay.\nThe course of treatment was repeated in three months. Depending on the degree of the impairment and its cause, the patients received from 3 to 8 courses of treatment."}, "[7]": {"tested_on": "sensorineural hearing loss of vascular genesis", "assay": "Treatment for sensorineural hearing loss of vascular genesis", "protocol": "A group of 24 patients at the age of 50-65 were treated for sensorineural hearing loss. […] After a 7-10 days break, the course was repeated. […] The hearing in one ear improved by 5-10 dB.\nSo the second intake of the drug at night was withdrawn. […] After that, they refused to continue the treatment for the lack of desired effect.\nThree courses of treatment were conducted. […] Then, the patients terminated the treatment because of its high cost."}, "[8]": {"settings": "after three courses, 0.625 mg once a day during 25 days"}, "[9]": {"settings": "twin boys, three courses, 2.5 mg twice a day for 20 days"}, "[10]": {"settings": "7 patients, courses repeated every 3-6 months"}, "[11]": {"settings": "18 patients, 2.5 mg a day with vasodilating treatment, three courses"}}, "note": "Counter-ions that a name gives are not always drawn.", "data": [{"smiles": "COc1ccc2c3c1O[C@H]1C[C@@H](O)C=C[C@@]31CCN(C)C2", "note": "[galanthamine hydrobromide]", "values": [{"measurement": "auditory function", "setting": "[1]", "result": "minor improvement of auditory function"}]}, {"smiles": "COc1cc2c(cc1OC)C(=O)C(CC1CCN(Cc3ccccc3)CC1)C2", "note": "(stereo not drawn) [ARICEPT®, donepezil hydrochloride]", "values": [{"measurement": "concentration", "setting": "[2]; [8]", "result": "concentration improved"}, {"measurement": "hyperkinesias", "setting": "[2]; [8]", "result": "some decrease of hyperkinesias"}, {"measurement": "hearing", "setting": "[2]; four patients 2-5 years, after three courses, 0.625 mg once a day during 25 days", "result": "no improvement in hearing"}, {"measurement": "hyperkinesia and walking", "setting": "[2]; patient with profound hearing loss, after ten courses", "result": "Hyperkinesia decreased and the patient began to walk"}, {"measurement": "hearing threshold", "setting": "[2]; patient, threshold over 95 dB before, after ten courses", "result": 90, "unit": "dB"}, {"measurement": "hearing improved by", "setting": "[2]; two children, 10 courses, 0.625 mg twice a day for 25 days, three months break", "result": "10-15 dB"}, {"measurement": "hearing improved by, in one ear", "setting": "[3]; each twin, further three courses 2.5 mg twice a day for 25 days, with PERIBEDIL 10 mg twice a day from the 4th course", "result": "20-25 dB"}, {"measurement": "hearing improved by", "setting": "[3]; person, sensorineural hearing loss of 65 dB, 2.5 mg once a day for twenty days, 10 courses over three years", "result": 10, "unit": "dB"}, {"measurement": "hearing improved by, in one ear", "setting": "[3]; twin boys of 10 years, three courses, 2.5 mg twice a day for 20 days, hydrochloride", "result": 10, "unit": "dB"}, {"measurement": "fatiguability", "setting": "[3]; [9]", "result": "decreased fatiguability"}, {"measurement": "speech", "setting": "[3]; [9]", "result": "speech became more understandable"}, {"measurement": "hearing improved by", "setting": "[4]; 0.625 mg once a day during 20 days, after four courses", "result": 25, "unit": "dB"}, {"measurement": "hearing improved by", "setting": "[4]; 2.5 mg once a day for 20 days, after 5 courses", "result": 30, "unit": "dB"}, {"measurement": "improvement in hearing", "setting": "[5]; 4 children 5-6 years, loss 65-75 dB, 1.25 mg 2 times a day for 20 days, in 1.5 months", "result": 5, "unit": "dB"}, {"measurement": "visual function", "setting": "[5]; after the third course", "result": "improved visual function"}, {"measurement": "hearing improved by", "setting": "[5]; after the third course, 1.25 mg two times a day", "result": "10-15 dB"}, {"measurement": "hearing improved by", "setting": "[5]; two patients, after six months, with PIRIBEDIL 5 mg two times a day", "result": "5-10 dB"}, {"measurement": "tinnitus", "setting": "[6]; [10]", "result": "decrease of tinnitus"}, {"measurement": "visual function", "setting": "[6]; [10]", "result": "improvement in their visual function"}, {"measurement": "effect of further courses", "setting": "[6]; after 5-6 courses of treatment", "result": "no further improvement"}, {"measurement": "side effects", "setting": "[6]; dosage increased to 5 mg twice a day, with anticonvulsant therapy", "result": "headaches and sleep disturbances"}, {"measurement": "side effects", "setting": "[6]; dosage of 2.5 mg a day", "result": "didn't produce side effects"}, {"measurement": "hearing", "setting": "meningiomas; 2 patients, hearing impaired by 30-40 dB", "result": "improvement of hearing"}, {"measurement": "speech", "setting": "meningiomas; 2 patients, with anticonvulsant therapy", "result": "increased legibility of speech"}, {"measurement": "vision", "setting": "meningiomas; 2 practically blind patients", "result": "clear differentiation of the source of light"}, {"measurement": "higher psychic functions", "setting": "minimal hearing loss; 56 children 4-6 years", "result": "improvement of higher psychic functions"}, {"measurement": "most noticeable improvement of phonemic hearing and speech functions observed", "setting": "minimal hearing loss; 56 children 4-6 years, 1.25 mg once a day during 20 days", "result": "between the 3d and the 5th courses"}, {"measurement": "hearing improved by", "setting": "minimal hearing loss; children with sensorineural hearing loss, 1.25 mg once a day during 20 days, 3 to 8 courses", "result": "5-10 dB"}, {"measurement": "children who manifested the increase in the intellect", "setting": "minimal hearing loss; starting from the 4th course, preliminary results", "result": 85, "unit": "%"}, {"measurement": "hearing", "setting": "[7]; 6 patients, night intake withdrawn, after the fourth course", "result": "slight improvement of hearing"}, {"measurement": "side effects", "setting": "[7]; 6 patients, 2.5 mg twice a day", "result": "irritability and sleep disturbances"}, {"measurement": "tinnitus", "setting": "[7]; 18 of 24 patients 50-65 years, after the first course, 2.5 mg twice a day during 25 days", "result": "decrease of tinnitus"}, {"measurement": "dizziness", "setting": "[7]; [11]", "result": "decrease of dizziness"}, {"measurement": "hearing", "setting": "[7]; [11]", "result": "improved hearing in one ear"}, {"measurement": "hearing in one ear improved by", "setting": "[7]; after the first course, 2.5 mg twice a day during 25 days", "result": "5-10 dB"}]}]}
